Values of other authors, collected in EP1566168A1, “Dermo-cosmetic compositions for depigmenting and use of it” (priority 2004, dated 2005).

What was measured:
[1] = test system: peau; conditions: applied to the skin
[2] = oil

CCCCCCCCCCCCCCCC(=O)OCc1cc(=O)c(OC(=O)CCCCCCCCCCCCCCC)co1 [acide dipalmitoylkojique, 2-palmitoyloxy 5-palmitoyloxy γ-pyrone]
propriétés irritantes [1]: dépourvu de propriétés irritantes | solubilité [2]: soluble dans l'huile
